`Cc1cccc(C(=O)NC(C)C)c1NC(=O)c1cnc(C(F)(F)F)nc1C` [Example 5, 4-Methyl-N-[2-methyl-6-[[(1-methylethyl)amino]carbonyl]phenyl]-2-(trifluoromethyl)-5-pyrimidinecarboxamide]: the melting point (commonly the temperature of the solid-liquid transition) is 216 to 217 °C.

For the origin of these results see patent US6995178B2, “Insecticidal anthranilamides” (E. I. du Pont de Nemours and Company, priority 2000, dated 2006).
